Results from ChEMBL document CHEMBL1125257, “Dihydropyrimidine calcium channel blockers. 3. 3-Carbamoyl-4-aryl-1,2,3,4-tetrahydro-6-methyl-5-pyrimidinecarboxylic acid esters as orally effective antihypertensive agents” (J Med Chem, 1991).

Test system: Rattus norvegicus
Assay: Antihypertensive activity when administered orally to spontaneously hypertensive rats
Format: functional, organism-based

Row | SMILES | IC50
1 | CCOC(=O)C1=C(COCCN)NC(C)=C(C(=O)OC)C1c1ccccc1Cl (configuration not stated) [AMLODIPINE] | 2.5 nM
2 | COC(=O)C1=C(C)NC(C)=C(C(=O)OC)C1c1ccccc1[N+](=O)[O-] [NIFEDIPINE] | 2.5 nM
